Laboratory results as given in patent publication US10150742B2, “Substituted heterocyclic compounds for treating or preventing viral infections” (President and Fellows of Harvard College, priority 2013, dated 2018).

Key:
[1] = molecular target: Abl kinases; assay: Abl kinase inhibition (IC50 kinase); type: biochemical
[2] = test system: DENV2; assay: Order-of-addition / post-infection treatment, single-cycle DENV2 yield in BHK21 cells by plaque-formation assay; type: cell-based; details: for inhibition of DENV2 replication when added after infection: post-treatment of cells
Description: To examine the point(s) in the DENV infectious cycle affected by GNF-2, we performed order of addition experiments measuring the effect of GNF-2 when incubated with cells or virus prior to infection (PRE), when added at the time of infection (CO), or when added after the initial infection had been allowed to occur (POST). […] BHK21 cells were inoculated with DENV2 at a multiplicity of infection (MOI) of 1 and incubated for one-hour at 37° C. after which the inoculum was removed, the cells were washed, and fresh medium was added to limit infection to a single round. At twenty-four hours post-infection, corresponding to approximately one complete life cycle of DENV, the yield of infectious virions that had been released to the culture supernatant was quantified by plaque-formation assay (PFA) as a measure of successful DENV replication.

[3] = test system: dengue virus serotype 2, DENV2; assay: Reduction of DENV viral titer by kinase inhibitors and labelled GNF2 derivatives (cell-based); details: for EC90: Dengue virus, DENV2, read-out: EC90 (dengue virus serotype 2, DENV2)
Description: In order to investigate the role of kinases on DENV entry, the order of addition of the cells, virus, and inhibitor was investigated. An inhibitor was either (i) contacted with a virus for 1 h at 37° C.; (ii) contacted with cells for 1 h at 37° C.; or (iii) contacted with a virus and cells for 1 h at 37° C. The cells were washed to remove virus and inhibitor. The washed cells were exposed to either DMSO or an inhibitor. Viral titer was measured at intervals post-infection by harvesting supernatants and measuring virus production by a plaque formation assay (PFA).

[4] = test system: DENV2; assay: DENV2 infectivity assay, compound pre-incubated with virus inoculum, viral yield by plaque formation assay; details: treatment of the virus
[5] = test system: DENV; assay: Association of DENV with liposomes; type: biochemical

SMILES | IC50 [1] [nM] | IC90 (concentration causing a 10-fold decrease in single-cycle viral yield) ([2]; added to cells post-infection, BHK21, MOI 1, 24 h) [μM] | inhibition of DENV2 replication when added after infection [2] | reduction of DENV viral titer [3] | EC90 [3] [nM] | lowering of DV titer when pre-incubated with the virus, compared to DMSO control [4] [log] | association of DENV with liposomes [5]
NC(=O)c1cccc(-c2cc(Nc3ccc(OC(F)(F)F)cc3)ncn2)c1 [GNF-2] | 138 ± 5 | 8 | inhibited DENV2 replication | over 1 log unit | ~1000 | ~1 | does not block association
Cc1ccc(NC(=O)c2ccc(CN3CCN(C)CC3)cc2)cc1Nc1nccc(-c2cccnc2)n1 [imatinib] |  |  | inhibited DENV2 replication | did not | 10000 |  | 
